Experiment [1] concerns the target T1, vanilloid receptor-1 (VR1) (Rattus norvegicus, UniProt O35433).
T1 construct: expressed in transfected cells; host or cells: Chinese Hamster Ovary cells (CHO, ATCC CCL-61), Tet-off inducible expression
Nature of the experiment: [3H]RTX competition binding assay, VR1-expressing CHO cells. The note with it: displacement of bound [3H]RTX; mean±SEM, 3 experiments. The method, then:
The binding affinity activity of the target compounds for vanilloid receptor-1 was measured by an in vitro receptor binding affinity assay. In the receptor binding assay, the compounds were evaluated for their ability to displace bound [^3H]RTX from the receptor. The results are expressed in terms of Ki values (mean±SEM, 3 experiments) which represent the concentration of the non-radioactive ligand that displaces half of the bound labeled RTX.
The VR receptor binding affinity activity of the inventive compounds was measured by using Chinese Hamster Ovary (CHO, ATCC, No. CCL-61) cell whose cDNA of VR1 (pUHG102 VR1 plasmid) was transfected, which can control the expression of VR1 according to the presence of tetracycline and Tetracycline on/off system (pTet off regulatory plasmid, Clontech. Inc., USA) that the expression of VR1 is induced by removing tetracycline from the medium. […] The cells were cultured after removing tetracycline prior to 48 hours. The tetracycline free culture medium was seeded at the bottom of T75 flask, incubated to the extent that its density reaches at 90%, and washed once with PBS buffer solution. The cells were collected by using saline solution containing 5 mM EDTA and subjected to centrifugation slightly to obtain precipitates, further, which had been kept at the temperature of −20° C. before use.
Experiments were designed to assess inhibition of specific [^3H]RTX binding to membranes by non-radioactive compounds. The binding assay mixture containing [^3H]RTX ([…]), various concentrations of competitive binding substances, 0.25 mg/ml of BSA (Cohn fraction V), 5×10^4 ˜5×10^5 numbers of VR1 and the expression cell, was admixed with saline solution containing 450 μl of Ca^2+ and Mg^2+ and […] of BSA. Non-specific binding assay was measured after mixing 100 nM of non-radioactive RTX thereto. The reaction mixture was treated for 60 min at 37° C. and the reaction was quenched by cooling over ice. RTX bound to the membrane of VR1 was subjected to centrifugation with maximum velocity for 15 minutes to precipitate its membrane residue, which results in separating from non-binding RTX. The tips of tube containing above precipitate was cut off and the amount of bound radioisotope was determined by scintillation counter (LS6500, Beckman-Coulter, USA). The measurement of binding was determined in triplicate in each experiment, and each experiment was repeated at least two times. Binding data were analyzed by fitting to the Hill equation and the Ki (equilibrium binding parameter) index, the Bmax (maximum binding parameter) index, and the cooperativity index etc., were determined by using origin 6.0 program (Origin, MicroCal Co., USA).
An initial compound was dissolved in DMSO (dimethyl sulfoxide) and diluted with saline solution containing Ca^2+ and […], and […] of BSA.

Experiment [2] addresses T2, VR1 (Rattus norvegicus, UniProt O35433).
T2 construct: expressed in transfected cells; host or cells: Chinese Hamster Ovary cells (CHO, ATCC CCL-61), Tet-off inducible expression
Nature of the experiment: 45Ca influx test in CHO cells expressing VR1, antagonistic activity against 50 nM capsaicin. In kind it is cell-based. The note with it: 45Ca uptake stimulated with 50 nM capsaicin. The method, then:
(§1) The ^45Ca Influx test by using CHO cells of the inventive compounds was measured by using Chinese Hamster Ovary (CHO, ATCC, No. CCL-61) cell whose cDNA of VR1 (pUHG102 VR1 plasmid) was transfected, which can control the expression of VR1 according to the presence of tetracycline and Tetracycline on/off system (pTet off regulatory plasmid, Clontech. Inc., USA) that the expression of VR1 is induced by removing tetracycline from the medium.
(§2) The CHO cells were poured onto 24 well plates to the extent that its density reaches at 30% and incubated for 24 hours at 37° C. The culture medium was exchanged to tetracycline free medium to induce the expression of VR1 and tested after 36 hours.
(§3) Together with 0.25 mg/ml BSA (Sigma A2153, USA), 1 Ci/ml ^45Ca(5-30 Ci/g used, ICN. Co., 62005 RT, U.S.A.), the test samples with increasing concentrations were added to each well. At the quenching moment of the incubation with ^45Ca, the cultured cells were removed from the medium, washed three times with cool PBS buffer solution containing 1.8 mM CaCl2 and 400 μl of RIPA buffer solution (50 mM Tris pH 7.4; 150 mM sodium chloride; 0.1% SDS; 1% sodium deoxycholate), was added in each well to homogenize the cells. The plates were stirred for 20 minutes slowly and 300 μl of cell lysate was transferred to scintillation vials from each wells. The radioactivity was determined by scintillation counter.
(§4) The data were assessed by determining four wells per each data point in each experiment and analyzed in computer by being transformed into Hill equation. The experiments were determined in triplicate in each sample comprising inventive compounds and control groups.
In order to determine the antagonistic activity, ^45Ca^2+-uptake stimulating-mixture was added with 50 nM capsaicin and the antagonistic activity was determined by the method for the agonistic activity. In case that 10 μM a certain compound cannot change the capsaicin-inducing activity, the compound shall be regarded as an […].

The target in experiment [3] is T2, VR1. The experiment can be described thus: 45Ca influx test in CHO cells expressing VR1, agonistic activity. In kind it is cell-based. The note with it: 45Ca uptake. The method, then:
The ^45Ca Influx test by using CHO cells expressing VR1 was performed by the procedure described in the literature (Lee, J. W., Bioorganic & Medicinal Chemistry, pp 1713-1720, 2001).
as §1, §2
as §3, with “In radioactive ^45Ca uptake experiment, The cells were incubated in […] of DMEM medium (Dulbecco's modified Eagles medium: Gibco-BRL, 31600-083) containing free of serum and 1.8 mM CaCl2 for 10 minutes at 37*C. Together” for “Together”
as §4

A further experiment deals with Male ICR mice. The experiment can be described thus: Acetic acid-induced writhing test. The note with it: Mus musculus, ip; i.p. 30 mins before 1.2% acetic acid i.p.; 50% reduction of the number of writhes. The format is in vivo. The method, then:
The acetic acid-induced writhing test for testing the analgesic activity of inventive compounds prepared from above Examples was performed by the procedure described in the literature (Lee, J. W., Bioorganic & Medicinal Chemistry, pp 1713-1720, 2001).
Male ICR mice having its mean body weight of 25 g (CD-1; Biogenomics Co. Korea) were reared in lighting controlled environment (12 hrs on/12 hrs off) maintaining with temperatures at 22±2° C. and humidity at 50±5% and allowed to eat a diet and to drink tap water ad lib.
Mice were fasted overnight prior to testing and adopted to the environment.
0.3 ml of acetic acid solution (1.2%) was administrated in the mice intraperitoneally and then the mice were put into the transparent acryl box (15×15×15 cm). 5 minutes later, the number of abdominal constrictions was counted for 20 minutes. Each group consisting of ten mice was pretreated with test compounds or solvent (0.2 ml, i.p.) 30 mins before the injection of acetic acid. Test compounds were dissolved in the mixture of ethanol/Tween-80/saline ([…]) or cremophor EL/DMSO/d-water ([…]).
Analgesic activity of each drug was determined at several different concentrations.
The index of analgesic activity (eff) was defined as below Empirical formula 1. Analgesic activity (eff)=100−{(No. of abdominal constriction of test group/No. of abdominal constriction of control group)×100} [Empirical formula 1]
Analgesic activity was expressed as the reduction in the number of abdominal constrictions, of control animals (vehicle-pretreated mice) and animals pretreated with test compounds.
A general note: An intraperitoneal irritant provokes the stretching counted in writhing tests.

Molecules are shown by their SMILES.

T2 sequence (O35433 whole entry): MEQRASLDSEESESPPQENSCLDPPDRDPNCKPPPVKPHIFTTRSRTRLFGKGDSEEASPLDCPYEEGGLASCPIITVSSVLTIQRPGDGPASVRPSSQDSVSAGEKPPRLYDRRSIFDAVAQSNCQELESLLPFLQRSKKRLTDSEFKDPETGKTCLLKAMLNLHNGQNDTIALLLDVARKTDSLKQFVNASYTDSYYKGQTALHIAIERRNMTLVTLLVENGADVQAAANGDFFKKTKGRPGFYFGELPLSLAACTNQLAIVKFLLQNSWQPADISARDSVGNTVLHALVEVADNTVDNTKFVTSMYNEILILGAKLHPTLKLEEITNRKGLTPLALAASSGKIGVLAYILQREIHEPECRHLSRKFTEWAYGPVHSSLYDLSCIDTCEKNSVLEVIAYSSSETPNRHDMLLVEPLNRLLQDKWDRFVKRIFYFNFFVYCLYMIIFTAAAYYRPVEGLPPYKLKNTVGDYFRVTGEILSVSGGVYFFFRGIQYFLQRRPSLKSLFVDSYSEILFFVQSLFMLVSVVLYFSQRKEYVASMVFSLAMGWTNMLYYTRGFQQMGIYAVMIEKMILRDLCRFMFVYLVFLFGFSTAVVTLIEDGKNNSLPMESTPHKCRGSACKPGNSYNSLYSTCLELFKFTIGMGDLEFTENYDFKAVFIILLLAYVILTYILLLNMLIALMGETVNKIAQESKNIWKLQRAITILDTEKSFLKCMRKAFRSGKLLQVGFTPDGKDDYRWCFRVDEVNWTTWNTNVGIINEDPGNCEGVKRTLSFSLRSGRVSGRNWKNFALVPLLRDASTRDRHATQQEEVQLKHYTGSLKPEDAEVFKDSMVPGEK
T1 sequence (O35433 whole entry): as above

`Oc1cc2c(cc1O)CN(C(=S)NCCc1ccc(Cl)cc1)CCC2` [Capsazepine, reference compound]: in experiment [1], the Ki amounted to 1350 nM. This compound returned an IC50 on VR1 [2] of 520 nM.

In experiment [1], `CC(C)(C)c1ccc(CN(O)C(=S)NCc2ccc(NS(C)(=O)=O)c(Cl)c2)cc1` [Compound 31, N-(4-tert-butylbenzyl)-N-hydroxy-N-[3-chloro-4-(methylsulfonylamino)benzyl]thiourea] came in with a Ki of 1310 nM. The compound also came in with an IC50 on VR1 [2] of 579 nM. Compound `CC(C)(C)c1ccc(CN(O)C(=S)NCc2ccc(NS(C)(=O)=O)c([N+](=O)[O-])c2)cc1` [Compound 32, N-(4-tert-butylbenzyl)-N-hydroxy-N-[4-(methylsulfonylamino)-3-nitrobenzyl]thiourea] came in with a concentration for half-maximal inhibition (IC50) against VR1 [2] of 635 nM.

Consider `CC(C)(C)c1ccc(CN(O)C(=S)NCc2ccc(NS(C)(=O)=O)cc2F)cc1` [Compound 33, N-(4-tert-butylbenzyl)-N-hydroxy-N-[2-fluoro-4-(methylsulfonylamino)benzyl]thiourea], for which the EC50 on VR1 [3] was found to be 12300 nM. For the same compound, in experiment [1], the Ki was 1920 nM. In experiment [1], `CC(C)(C)c1ccc(CN(O)C(=S)NCc2ccc(NS(C)(=O)=O)cc2Cl)cc1` [Compound 34, N-(4-tert-butylbenzyl)-N-hydroxy-N-[2-chloro-4-(methylsulfonylamino)benzyl]thiourea] returned a Ki of 2270 nM. The compound `COc1cc(CNC(=S)N(O)CC(COC(=O)C(C)(C)C)Cc2ccc(C)c(C)c2)ccc1NS(C)(=O)=O` (stereo not drawn) [Compound 36, N-[2-(3,4-dimethylbenzyl)-3-(pivaloyloxy)propyl]-N-hydroxy-N-[3-methoxy-4-(methylsulfonylamino)benzyl]thiourea] displayed an EC50 on VR1 [3] of 809 nM. The compound further yielded a Ki in experiment [1] of 396 nM. Regarding `Cc1ccc(CC(COC(=O)C(C)(C)C)CN(O)C(=S)NCc2ccc(NS(C)(=O)=O)cc2F)cc1C` (stereo not drawn) [Compound 38, N-[2-(3,4-dimethylbenzyl)-3-(pivaloyloxy)propyl]-N-hydroxy-N-[2-fluoro-4-(methylsulfonylamino)benzyl]thiourea], the midpoint of the response at VR1 [3], the EC50, lay at 1350 nM. As to `Cc1ccc(CC(COC(=O)C(C)(C)C)CN(O)C(=S)NCc2ccc(NS(C)(=O)=O)cc2Cl)cc1C` (stereo not drawn) [Compound 39, N-[2-(3,4-dimethylbenzyl)-3-(pivaloyloxy)propyl]-N-hydroxy-N-[2-chloro-4-(methylsulfonylamino)benzyl]thiourea], in experiment [1], the Ki is 221 nM. On VR1 [2], the IC50 amounted to 757 nM. Take `CC(C)(C)C(=O)OCC(Cc1ccc(C(C)(C)C)cc1)CN(O)C(=S)NCc1ccc(NS(C)(=O)=O)cc1` (stereo not drawn) [Compound 40, N-[2-(4-tert-butylbenzyl)-3-(pivaloyloxy)propyl]-N-hydroxy-N-[4-(methylsulfonylamino)benzyl]thiourea]: at VR1 [3], the “EC50 (nM) (VR1/CHO)” value is recorded as “weak”. The compound further had a Ki in experiment [1] of 536 nM. In the case of `CC(C)(C)C(=O)OCC(Cc1ccc(C(C)(C)C)cc1)CN(O)C(=S)NCc1ccc(NS(C)(=O)=O)c(F)c1` (stereo not drawn) [Compound 41, N-[2-(4-tert-butylbenzyl)-3-(pivaloyloxy)propyl]-N-hydroxy-N-[3-fluoro-4-(methylsulfonylamino)benzyl]thiourea], at VR1 [3], the “EC50 (nM) (VR1/CHO)” value is recorded as “Weak”. Further, the Ki in experiment [1] turned out to be 405 nM. The “IC50 (nM) (VR1/CHO)” value on VR1 [2] is listed as “Weak”. In the case of `CC(C)(C)c1ccc(CC(=O)N(O)Cc2ccc(NS(C)(=O)=O)cc2)cc1` [Compound 63, N-hydroxy-N-[4-(methylsulfonylamino)benzyl]-2-(4-tert-butylphenyl)acetamide], the EC50 on VR1 [3] came to 1960 nM. The Ki in experiment [1] came out at 5310 nM.

For `Cc1ccc(CC(CNC(=S)N(O)Cc2ccc(NS(C)(=O)=O)c(F)c2)COC(=O)C(C)(C)C)cc1C` (stereo not drawn) [Compound 64, N-[2-(3,4-dimethylbenzyl)-3-(pivaloyloxy)propyl]-N-hydroxy-N-[3-fluoro-4-(methylsulfonylamino)benzyl]thiourea], the “EC50 (nM) (VR1/CHO)” value at VR1 [3] is “Weak”. This compound registered a Ki in experiment [1] of 546 nM. In the experiment with Male ICR mice, `Cc1ccc(CC(CNC(=S)NCc2ccc(NS(C)(=O)=O)cc2)COC(=O)C(C)(C)C)cc1C` (stereo not drawn) [JYL-827, reference compound] showed a median effective dose (ED50) of 2.62 µg/kg. On to `Cc1ccc(CC(CNC(=S)NCc2ccc(NS(C)(=O)=O)c(F)c2)COC(=O)C(C)(C)C)cc1C` (stereo not drawn) [JYL-1433, reference compound], for which the 50% effect level with Male ICR mice (ED50) was put at a dose of 7.43 µg/kg. Turning to `CC(C)(C)c1ccc(CNC(=S)NCc2ccc(NS(C)(=O)=O)cc2)cc1` [KJM-429, reference compound], in the experiment with Male ICR mice, the median effective dose (ED50) stood at 1410 µg/kg. `O=C(c1ccccc1)c1ccc2n1CCC2C(=O)O` (stereo not drawn) [Ketorolac, reference compound] gave an ED50 in the experiment with Male ICR mice of 2820 µg/kg.

`CC(C)(C)c1ccc(CNC(=S)NCc2ccc(NS(C)(=O)=O)c(F)c2)cc1` [SC-0030, reference compound] showed an ED50 in the experiment on Male ICR mice of 1.26 µg/kg.

As usually defined, the Ki is the equilibrium dissociation constant of an inhibitor or competing ligand from its target. Read a high Ki as weaker binding. A word on the IC50: it is the concentration that inhibits the measured activity by half. A word on the EC50: it is the concentration giving half of the maximal effect. As usually defined, the ED50 is the dose at which the effect has come halfway, by size or by number of responders.

Values taken from patent US20050288369A1, “Novel n-hydroxy thiourea, urea and amide compounds and the pharmaceutical compositions comprising the same” (priority 2002, published 2005).
